Here are results for 15 compounds from ChEMBL document CHEMBL1201862, “PubChem BioAssay data set” (2004).

Test systems include MOLT-4; SNB-78; NCI-H460; SK-MEL-5; HCT-15; LXFL 529; U-251; RPMI-8226; KM-20L2; DLD-1; A498; ACHN; NCI-H226; XF498; PC-3; Hs-578T; MCF7; DU-145; T47D; MDA-N.
What all share (test): NCI anticancer screen, dose series, 48 h

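A five-concentration, 48-hour dose response in 96-well plates underlies each endpoint, interpolated linearly between surrounding concentrations. Abbreviation: GI50, concentration required for 50% inhibition of growth.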 Activity calls are given as the source filed them. Rule as the data show it: active = GI50 up to about 1.1 µM and inactive = higher. A value given as a limit tells only on which side of the number the result lay.

Consider `CN(C)CC/C(=N\Nc1ccc(Cl)c(Cl)c1)c1ccccc1`, for which the GI50 is 2.17 µM (inactive) in the assay with MOLT-4; 2.4 µM (inactive) with SNB-78; 1.85 µM (inactive) with NCI-H460; 1.84 µM (inactive) in the assay with SK-MEL-5; 1.98 µM in the assay with HCT-15; 1.52 µM (inactive) in the assay on LXFL 529. In addition, the GI50 in the assay with U-251 was 1.78 µM (inactive); in the assay on RPMI-8226 it was 2.31 µM (inactive); with KM-20L2, 1.74 µM (inactive); in the assay on DLD-1 it was 3.39 µM (inactive); in the assay on A498, 2.81 µM (inactive); with ACHN, 1.69 µM (inactive).
In the case of `C[n+]1c2ccccc2c(NCC(=O)O)c2ccccc21`, the GI50 in the assay with MOLT-4 was > 100 µM (inactive); in the assay on SNB-78, > 100 µM (inactive); with NCI-H460, > 100 µM (inactive); in the assay with SK-MEL-5 it was > 100 µM (inactive); in the assay with HCT-15 it was more than 100 µM; in the assay on LXFL 529, > 100 µM (inactive). For the same compound, the GI50 in the assay with U-251, with RPMI-8226, with KM-20L2, with DLD-1, in the assay on A498 and in the assay on NCI-H226 was > 100 µM (inactive) throughout. Further, the GI50 in the assay on ACHN is > 100 µM (inactive).
Turning to `O=C1N=CN=C2C=CC(Cl)=C(I)C12` (stereo unspecified), the GI50 in the assay on MOLT-4 is 67.1 µM (inactive); in the assay on NCI-H460, 75.5 µM (inactive); with SK-MEL-5, 98.2 µM (inactive); in the assay on XF498 it was 51.1 µM (inactive); with LXFL 529 it was > 100 µM (inactive); in the assay on U-251 it was 74.3 µM (inactive). In addition, the GI50 in the assay on RPMI-8226 was 56.2 µM (inactive); with KM-20L2, > 100 µM (inactive); with DLD-1, 58.5 µM (inactive); in the assay with A498, 85.3 µM (inactive); in the assay with ACHN, 43.4 µM (inactive).
Consider `Oc1cc(-c2ccccn2)nc2cc(F)ccc12`, for which the GI50 was > 100 µM (inactive) in the assay with MOLT-4; > 100 µM (inactive) with SNB-78; 38.7 µM (inactive) in the assay with NCI-H460; 45.1 µM (inactive) in the assay on SK-MEL-5; > 100 µM (inactive) with LXFL 529; 92.3 µM (inactive) in the assay on RPMI-8226. Also, the GI50 is > 100 µM (inactive) in the assay with KM-20L2, 81.8 µM (inactive) in the assay on DLD-1, > 100 µM (inactive) in the assay with NCI-H226 and > 100 µM (inactive) in the assay with ACHN.
For the compound `COC(=O)[C@]1(C)CCC[C@@]2(C)C1CCC1=CC3(C(C)C)CCC12OO3` (stereo partly specified), the GI50 was 20 µM (inactive) in the assay on MOLT-4; 51.3 µM (inactive) in the assay on SNB-78; 58.6 µM (inactive) with NCI-H460; 31.1 µM (inactive) in the assay with SK-MEL-5; 40 µM in the assay on HCT-15; 31.4 µM (inactive) with LXFL 529. Also, the GI50 was > 100 µM (inactive) with U-251; 43.1 µM (inactive) in the assay on RPMI-8226; 94 µM (inactive) with KM-20L2; 50.1 µM (inactive) with DLD-1; 18.7 µM (inactive) in the assay with A498; 43.7 µM (inactive) with NCI-H226. In the assay on ACHN, the GI50 was 63.4 µM (inactive).
As for `O=C(Cc1nc2ccccc2s1)C(=O)Nc1cccc(C(F)(F)F)c1`, the GI50 with MOLT-4 is > 100 µM (inactive); in the assay on SNB-78, > 100 µM (inactive); in the assay with NCI-H460, > 100 µM (inactive); in the assay on SK-MEL-5, > 100 µM (inactive); with HCT-15, more than 100 µM; in the assay with LXFL 529 it was > 100 µM (inactive). In addition, the GI50 in the assay with U-251, in the assay with KM-20L2, with DLD-1, with A498, in the assay on NCI-H226 and in the assay with ACHN was > 100 µM (inactive) in each case.
As for `O=C1CN=C(C[N+](=O)[O-])c2ccccc21`, the GI50 was > 100 µM (inactive) with MOLT-4; > 100 µM (inactive) with SNB-78; > 100 µM (inactive) with NCI-H460; > 100 µM (inactive) in the assay with SK-MEL-5; more than 100 µM in the assay with HCT-15; > 100 µM (inactive) in the assay with LXFL 529. Further, the GI50 in the assay on U-251, with RPMI-8226, with KM-20L2, with DLD-1, in the assay on A498 and in the assay on NCI-H226 was > 100 µM (inactive) in each case. Also, the GI50 in the assay with ACHN is > 100 µM (inactive).
On to `O=C(c1ccccc1)c1c(CC(O)c2ccccc2)n(C(=O)c2ccccc2)c2ccccc12` (stereo unspecified), for which the GI50 in the assay with MOLT-4 was 16.6 µM (inactive); in the assay with NCI-H460 it was 30.1 µM (inactive); in the assay on SK-MEL-5 it was 29.2 µM (inactive); with XF498, > 100 µM (inactive); in the assay with HCT-15 it was 32.7 µM; in the assay with LXFL 529, 39.5 µM (inactive). Moreover, the GI50 is 36.1 µM (inactive) in the assay on U-251; 25.2 µM (inactive) with RPMI-8226; 55.8 µM (inactive) in the assay on KM-20L2; 40.9 µM (inactive) in the assay with DLD-1; 31.6 µM (inactive) in the assay on NCI-H226; 34.4 µM (inactive) in the assay with ACHN.
With `NC(=S)NNC(=O)CCC(=O)Nc1ccc(Cl)cc1Cl`, the GI50 is 55.3 µM (inactive) with MOLT-4; > 100 µM (inactive) in the assay with SNB-78; > 100 µM (inactive) with NCI-H460; 62.7 µM (inactive) with SK-MEL-5; 50.4 µM with HCT-15; 26.1 µM (inactive) in the assay on LXFL 529. Further, the GI50 is > 100 µM (inactive) with U-251; 43.5 µM (inactive) with RPMI-8226; > 100 µM (inactive) in the assay on KM-20L2; > 100 µM (inactive) in the assay with DLD-1; > 100 µM (inactive) in the assay with A498; > 100 µM (inactive) in the assay on NCI-H226. In addition, the GI50 in the assay with ACHN is > 100 µM (inactive).
As to `CCCCCCCCCCCCOCCCOP(=O)([O-])OCC[N+](C)(C)C`, the GI50 in the assay on MOLT-4 is 20.2 µM (inactive); in the assay with SNB-78, 25.2 µM (inactive); with NCI-H460, 13.9 µM (inactive); in the assay with PC-3, 2.18 µM (inactive); with SK-MEL-5, 48.6 µM (inactive); in the assay on XF498, 37.7 µM (inactive). Besides, the GI50 was 22.4 µM (inactive) with Hs-578T; 25.6 µM in the assay with HCT-15; 45.2 µM (inactive) in the assay with MCF7; 16.1 µM (inactive) in the assay on U-251; 9.08 µM (inactive) with RPMI-8226; 34.3 µM (inactive) in the assay on DU-145. Besides, the GI50 in the assay with KM-20L2 was 17 µM (inactive); in the assay with DLD-1 it was 27.9 µM (inactive); in the assay on T47D it was 3.64 µM (inactive); in the assay on A498 it was 30 µM (inactive); with NCI-H226, 24.3 µM (inactive); in the assay on MDA-N, 13 µM (inactive). In the assay on ACHN, the GI50 is 30.6 µM (inactive).
For `O=C(O)c1nc(-c2ccc(Cl)c(Cl)c2)nc2ccc(Cl)cc12`, the GI50 is 40.8 µM (inactive) in the assay with MOLT-4; 27.9 µM (inactive) in the assay with SNB-78; > 100 µM (inactive) in the assay on NCI-H460; > 100 µM (inactive) in the assay with SK-MEL-5; more than 100 µM with HCT-15; > 100 µM (inactive) in the assay on LXFL 529. Moreover, the GI50 with U-251 is 61.5 µM (inactive); in the assay with RPMI-8226, > 100 µM (inactive); in the assay with KM-20L2, > 100 µM (inactive); in the assay with DLD-1, > 100 µM (inactive); in the assay on A498, > 100 µM (inactive); with ACHN it was > 100 µM (inactive).
Take `Cc1ccccc1NC(=O)c1nc(S)nc(N)c1-c1ccccc1C`: the GI50 was > 100 µM (inactive) in the assay on MOLT-4; > 100 µM (inactive) in the assay on SNB-78; > 100 µM (inactive) in the assay on NCI-H460; > 100 µM (inactive) in the assay on SK-MEL-5; more than 100 µM in the assay on HCT-15; > 100 µM (inactive) in the assay on LXFL 529. For the same compound, the GI50 in the assay on U-251, with RPMI-8226, in the assay on KM-20L2, in the assay with DLD-1, with A498 and in the assay with NCI-H226 was > 100 µM (inactive) throughout. Also, the GI50 with ACHN was > 100 µM (inactive).
Take `Cc1ccc(Oc2ccc(C(=O)c3cccc(C(=O)c4ccc(Oc5ccc(C)cc5)cc4)n3)cc2)cc1`: the GI50 in the assay on MOLT-4 is > 100 µM (inactive); with SNB-78, > 100 µM (inactive); in the assay on NCI-H460, > 100 µM (inactive); with SK-MEL-5, > 100 µM (inactive); with HCT-15, more than 100 µM; in the assay with LXFL 529 it was > 100 µM (inactive). Also, the GI50 in the assay with U-251, in the assay on KM-20L2, in the assay with DLD-1, with A498, in the assay on NCI-H226 and with ACHN was > 100 µM (inactive) throughout.
Take `CSc1ccc2c(cc1=O)[C@@H](NC(=O)c1cccc([N+](=O)[O-])c1)CCc1cc(O)c(O)c(O)c1-2`: the GI50 was 21.6 µM (inactive) in the assay with MOLT-4; 54.2 µM (inactive) in the assay with NCI-H460; 36.3 µM in the assay with HCT-15; 35.8 µM (inactive) with LXFL 529; 22.8 µM (inactive) with U-251; 28.1 µM (inactive) with RPMI-8226. The GI50 in the assay on KM-20L2 is 23 µM (inactive); in the assay on DLD-1, 43.8 µM (inactive); in the assay on A498, 27.7 µM (inactive); in the assay on NCI-H226, 24.2 µM (inactive); in the assay on ACHN, > 100 µM (inactive).
Consider `CO[C@H]1C[C@H](O[C@H]2CC[C@@]3(C)[C@H](CC[C@@H]4[C@@H]3CC[C@]3(C)[C@@H](C5=CC(=O)OC5)CC[C@]43O)C2)O[C@H](C)[C@H]1O`, for which the GI50 is < 0.01 µM (active) in the assay on MOLT-4; < 0.01 µM (active) in the assay on NCI-H460; < 0.01 µM (active) in the assay with PC-3; < 0.01 µM (active) with SK-MEL-5; < 0.01 µM (active) with Hs-578T; less than 0.01 µM in the assay on HCT-15. Moreover, the GI50 in the assay on MCF7 is < 0.01 µM (active); in the assay with U-251, < 0.01 µM (active); in the assay on RPMI-8226, < 0.01 µM (active); with DU-145, < 0.01 µM (active); with T47D, < 0.01 µM (active); in the assay with A498 it was 0.0113 µM (active). Besides, the GI50 was < 0.0184 µM (active) in the assay on NCI-H226, < 0.01 µM (active) in the assay with MDA-N and < 0.01 µM (active) with ACHN.
